Source: patent US20240285571A1, “METHODS OF TREATING BONE INFECTIONS” (MICROBION CORPORATION, priority 2020, published 2024)
Values after ≈ are worked out from the molar mass of the structure shown. Read-outs that look alike come from different tables or passages of the source. Each block holds one compound with its values, some of them ahead of it.

What was measured:
[1] = test system: baseline pathogens at the surgical site; test: Phase 2a study: microbiological success / post-baseline microbiology at the index site; assay type: in vivo, human; settings: Subject 001-002; Subject 006-003, S. aureus (MRSA); 0.5 μg/cm^2 dose group
Method: Microbiology was assessed on Day 1 and at the time of any subsequent surgical procedure at the index site. Samples were collected from the infected bone site or involved tissue adjacent to any implant(s), swabs of the deep infection site, and the superficial tissue/wound closure/sinus tract site. Isolation and identification of aerobic and anerobic bacteria was conducted at a central microbiology laboratory (IHMA, Schaumburg, IL) and susceptibility of the isolates to MBN-101 (BisEDT) and comparator agents was performed per Clinical and Laboratory Standards Institute (CLSI). Parallel sets of samples were analyzed by the local clinical site laboratory to guide patient antibiotic treatment.
Clinical activity of locally administered MBN-101 was assessed by the following: • Proportion of treatment failures. […] Pain intensity at the surgical site was assessed by VAS (0 to 10 scale). • Findings of microbiology evaluations at the surgical site. Microbiologic success was assessed by clearance of infection. • Findings of radiographic evaluations at the surgical site. Radiographic success was assessed by healing on radiologic examination. • Change in serologic markers CRP and ESR at each post-baseline time point. […]

[2] = test system: relevant ATCC QC organisms; settings: CLSI established QC range, cited from earlier work
S. aureus ATCC 29213 = settings: per CLSI M100-S24 or provided by Microbion; cited from earlier work
E. coli ATCC 25922 = settings: per CLSI M100-S24 or provided by Microbion; cited from earlier work
N. gonorrhoeae = N. gonorrhoeae MMX 683 (ATCC 49226); cited from earlier work
B. fragilis [3] = test: Agar dilution MIC, anaerobes (Example 5); assay type: cell-based; settings: Bacteroides fragilis, ATCC25285; B. fragilis MMX 123 (ATCC 25285); QC; read-out: MIC
C. difficile [4] = test: Agar dilution MIC, anaerobes (Example 5); assay type: cell-based, Clostridium difficile; settings: Clostridioides difficile, read-out: MIC
B. fragilis [5] = settings: B. fragilis MMX 123 (ATCC 25285); cited from earlier work
C. difficile [6] = settings: C. difficile MMX 4381 (ATCC 700057); cited from earlier work

SMILES: C1C[S][Bi]([S]CC[S][Bi]2[S]CC[S]2)[S]1 [BisEDT, bismuth-1,2-ethanedithiol]
Change of BisEDT MIC, baseline vs post-baseline isolates from the same source [1]: unchanged | MIC QC range (in parentheses) ([2]; E. coli ATCC 25922): (0.5-4)1 μg/mL | MIC QC range (in parentheses) ([2]; P. aeruginosa ATCC 27853): (0.5-4) μg/mL | MIC QC range (in parentheses) ([2]; S. aureus ATCC 29213): (0.12-1) μg/mL | MIC, acceptable range (S. aureus ATCC 29213): 0.13 to 1 µg/mL | MIC, expected results (S. aureus ATCC 29213): 0.25 to 0.5 µg/mL | MIC, acceptable range (E. coli ATCC 25922): 0.5 to 2 µg/mL | MIC, expected results (E. coli ATCC 25922): 1 µg/mL

SMILES: CO/N=C(\C(=O)N[C@@H]1C(=O)N2C(C(=O)O)=C(CSc3nc(=O)c(=O)[nH]n3C)CS[C@H]12)c1csc(N)n1 [Ceftriaxone]
CLSI QC range of MIC (N. gonorrhoeae): (0.004-0.015) μg/mL

MIC (B. fragilis [3]): 0.5 µg/mL (≈ 2.92 µM) | MIC (C. difficile [4]; ATCC700057, C. difficile MMX 4381 (ATCC 700057), QC, CCI): 0.5 µg/mL (≈ 2.92 µM) | MIC (C. difficile [4]; C. difficile MMX 8272, ribotype 255, CCI): 0.5 µg/mL (≈ 2.92 µM) | MIC (C. difficile [4]; C. difficile MMX 8279, ribotype 005, CCR): 0.5 µg/mL (≈ 2.92 µM) | MIC (C. difficile [4]; C. difficile MMX 8281, ribotype 010, CCR): 8 µg/mL (≈ 46.7 µM) | MIC (C. difficile [4]; NCTC13307, C. difficile MMX 5681 (NCTC 13307), ribotype 012, CCR): 0.5 µg/mL (≈ 2.92 µM) | MIC (C. difficile [4]; NCTC13336, C. difficile MMX 5680 (NCTC 13336), ribotype 027, CCI METR): > 64 µg/mL
SMILES: Cc1ncc([N+](=O)[O-])n1CCO [Metronidazole]
CLSI QC range of MIC (B. fragilis [5]): (0.25-1) μg/mL | CLSI QC range of MIC (C. difficile [6]): (0.12-0.5) μg/mL
